For the test, the system named is Salmonella enterica strain AMC (ATCC #6539). The test is described as follows: Antibacterial MIC assay (Promega BacTiter-Glo microbial cell viability assay). Type of test: cell-based. As to the method: (§1) The minimum inhibitory concentrations (MICs) are determined using the Promega Bac Titer-Glo microbial cell viability assay, which measures cell viability by quantitation of ATP present, an indicator of metabolic activity of cells. The assays are carried out using Salmonella enterica strain AMC (ATCC #6539), Inocula of S. enterica are prepared from 12-h broth cultures grown in Mueller Hinton broth and the suspensions were then adjusted to a turbidity of 0.5 McFarland. […] Bacterial cells are treated with hunanamycin analogs for 24 hours at ranges from 0.4 to 40 μg/mL and ciprofloxacin as a control ranging from 0.03 to 10 μg/mL. The OD600 is measured using an Envision multi-modal plate reader (Perkin-Elmer, Inc.).
as §1, with “(MICs) were” for “(MICs) are”, “assays were” for “assays are”, “enterica were” for “enterica are”, “cells were” for “cells are”, “OD600 was” for “OD600 is”, “Inc.). The antibiotic assays were performed in Prof. John B. MacMillan's lab, Department of Biochemistry, University of Texas Southwestern Medical Center at Dallas, USA.” for “Inc.).”

Where [1] appears, read: S. enterica AMC ATCC #6539, 24 hours treatment, 0.4 to 40 μg/mL, Mueller Hinton broth, Table 1 in Example 9.
[2] abbreviates: Salmonella enterica, ATCC6539, S. enterica AMC ATCC #6539, 24 hours treatment, 0.4 to 40 μg/mL, Mueller Hinton broth, Table 1 in description, read-out: MIC.

Each structure is given as a SMILES string. In brackets after ≈: the same amount, converted by molar mass. Read-outs that look alike come from different tables or passages of the source.

From patent US11002524B2, “Cyclic compounds and process for the preparation thereof” (Council of Scientific & Industrial Research, priority 2016, dated 2021) come the findings set out here.

One may read the MIC as the least concentration at which growth counts as inhibited.

As for `Cc1cc2c(cc1C)n(C[C@H](O)[C@H](O)[C@H](O)CO)c(=O)c(=O)n2CC=C1CCCCC1` [Compound 6, 1-(2-cyclohexylideneethyl)-6,7-dimethyl-4-((2S,3S,4R)-2,3,4,5-tetrahydroxypentyl)-1,4-dihydroquinoxaline-2,3-dione], the “MIC” value is above 32 µg/mL under setting [1] and above 32 µg/mL under setting [2].
For `C=CCn1c(=O)c(=O)n(C[C@H](O)[C@H](O)[C@H](O)CO)c2cc(C)c(C)cc21` [Compound 4, 1-allyl-6,7-dimethyl-4-((2S,3S,4R)-2,3,4,5-tetrahydroxypentyl)-1,4-dihydroquinoxaline-2,3-dione], the minimum inhibitory concentration (MIC) is, setting by setting: under setting [1], 16 µg/mL (≈ 43.9 µM); under setting [2], 16 µg/mL (≈ 43.9 µM).
`CC(C)=CCn1c(=O)c(=O)n(C[C@H](O)[C@H](O)[C@H](O)CO)c2cc(C)c(C)cc21` [Compound 3, 6,7-dimethyl-1-(3-methylbut-2-en-1-yl)-4-((2S,3S,4R)-2,3,4,5-tetrahydroxypentyl)-1,4-dihydroquinoxaline-2,3-dione]: the minimal inhibitory concentration (MIC) stood at 16 µg/mL (≈ 40.8 µM) under setting [1] and 16 µg/mL (≈ 40.8 µM) under setting [2].
As to `Cc1cc2[nH]c(=O)c(=O)n(C[C@H](O)[C@H](O)[C@H](O)CO)c2cc1C` [Compound 2, 6,7-dimethyl-1-((2S,3S,4R)-2,3,4,5-tetrahydroxypentyl)-1,4-dihydroquinoxaline-2,3-dione], the minimal inhibitory concentration (MIC) runs as follows: under setting [1], above 32 µg/mL; under setting [2], above 32 µg/mL.
On to `CCOC(=O)Cn1c(=O)c(=O)n(C[C@H](O)[C@H](O)[C@H](O)CO)c2cc(C)c(C)cc21` [Compound 7, ethyl 2-(6,7-dimethyl-2,3-dioxo-4-((2S,3S,4R)-2,3,4,5-tetrahydroxypentyl)-3,4-dihydroquinoxalin-1(2H)-yl)acetate], for which the minimum inhibitory concentration (MIC) reads like this: under setting [1], 16 µg/mL (≈ 39 µM); under setting [2], 16 µg/mL (≈ 39 µM).
On to `Cc1cc2c3c(c1C)C(C)(C)CCn3c(=O)c(=O)n2C[C@H](O)[C@H](O)[C@H](O)CO` [Huanamycin A, 7,7,8,9-tetramethyl-1-((2S,3S,4R)-2,3,4,5-tetrahydroxypentyl)-6,7-dihydro-1H,5H-4l4,41l5-4,41-methanopyrido[3,2,1-ij]quinoxaline-2,3-dione, reference compound], for which the minimal inhibitory concentration (MIC) worked out at 8 µg/mL (≈ 20.4 µM) under setting [1] and 8 µg/mL (≈ 20.4 µM) (Salmonella enterica, ATCC6539, 24 h).
Regarding `Cc1cc2c(cc1C)n(C[C@H](O)[C@H](O)[C@H](O)CO)c(=O)c(=O)n2Cc1ccccc1` [Compound 8, 1-benzyl-6,7-dimethyl-4-((2S,3S,4R)-2,3,4,5-tetrahydroxypentyl)-1,4-dihydroquinoxaline-2,3-dione], the “MIC” value was above 32 µg/mL under setting [1] and above 32 µg/mL under setting [2].
Consider `CCn1c(=O)c(=O)n(C[C@H](O)[C@H](O)[C@H](O)CO)c2cc(C)c(C)cc21` [Compound 5, 1-ethyl-6,7-dimethyl-4-((2S,3S,4R)-2,3,4,5-tetrahydroxypentyl)-1,4-dihydroquinoxaline-2,3-dione], for which the “MIC” value runs as follows: under setting [1], above 32 µg/mL; under setting [2], above 32 µg/mL.
Take `Cc1cc2c(cc1C)n(C[C@H](O)[C@H](O)[C@H](O)CO)c(=O)c(=O)n2CCC1CCCCC1` [Compound 10, 1-(2-cyclohexylethyl)-6,7-dimethyl-4-((2S,3S,4R)-2,3,4,5-tetrahydroxypentyl)-1,4-dihydroquinoxaline-2,3-dione]: the minimal inhibitory concentration (MIC) reads like this: under setting [1], 8 µg/mL (≈ 18.4 µM); under setting [2], 8 µg/mL (≈ 18.4 µM).
